Reference: patent US4650799A, “Bis-dioxopiperazine derivatives, process for their preparation, antitumor agents comprising them and compositions containing them” (Zenyaku Kogyo Kabushiki Kaisha, priority 1983, dated 1987)

Experiments:
[1] = tested on: P388 lymphocytic leukemia; experiment: Animal Test on P388 Lymphocytic Leukemia (increase in life span); assay type: in vivo, mice [CDF1 (BALB/c×DBA/2)]; details: Mus musculus, P388, ip, i.p.; for ILS at 20 mg/kg / ILS at 60 mg/kg: 216 h; for ILS at 20 mg/kg: 20 mg/kg × 9 days; for ILS at 60 mg/kg: 60 mg/kg × 9 days; for ILS at 200 mg/kg: 200 mg/kg × 2 (1st and 5th day)
Description: The treated group to which the compound of the present invention was administered consisted of seven mice, while the control group consisted of ten mice. Six weeks old male mice [CDF1 (BALB/c×DBA/2), 25±2 g of body weight] were employed as host animals.
Tumor cells (1.0×10^6) of P388 lymphocytic leukemia were transplanted intraperitoneally into each mouse. The treatment began one day after the transplantation and the prescribed dose of each test compound was administered intraperitoneally to the mice once a day for 9 days or on the 1st and 5th day.
Antitumor activity of the test compound was evaluated by the rate of increase in life span (I.L.S.%) which was calculated with the following formula. [formula] T: mean survival time of treated mice C: mean survival time of control mice

Lewis lung carcinoma = experiment: Animal Test on Lewis Lung Carcinoma (growth inhibition, metastasis); assay type: in vivo, mice [BDF1 (C57BL/6×DBA/2)]; details: orally, 8 days, tumor weight on 20th day
Description: (§1) Antitumor activities of bis-dioxopiperazine derivatives which the present invention concerns were verified by the growth inhibition or the increase of life span in experimental animals with syngenic tumors such as P388 lymphocytic leukemia, Lewis lung carcinoma, B-16 melanoma and Colon Adenocarcinoma No. 38 as shown below.
(§2) The treated group to which the compound of the present invention was administered consisted of seven mice, while the control group consisted of ten mice. Six weeks old male mice [BDF1 (C57BL/6×DBA/2), 25±2 g of body weight] were employed as host animals.
Tumor cells (5×10^5) of Lewis lung carcinoma were transplanted subcutaneously in inguinal region of each mouse. The treatment began one day after the transplantation and the prescribed dose of each test compound was administered orally to the mice once a day for 8 days.
On the 20th day after the transplantation, the tumors of all the mice were excised and weighed. Antitumor activity of the test compound was evaluated by the rate of growth inhibition (G.I.%) which was calculated with the following formula. [formula] T: mean tumor weight of treated mice C: mean tumor weight of control mice

B-16 melanoma = experiment: Animal Test on B-16 Melanoma (increase in life span); assay type: in vivo, mice [BDF1 (C57BL/6×DBA/2)]; details: Mus musculus, B16, ip, 192 h, i.p., 8 days; for ILS at 20 mg/kg: 20 mg/kg daily; for ILS at 30 mg/kg: 30 mg/kg daily
Description: The treated group to which the compound of the present invention was administered consisted of seven mice, while the control group consisted of ten mice. Six weeks old male mice [BDF1 (C57BL/6×DBA/2) 25±2 g of body weight] were employed as host animals.
Tumor cells (5×10^5) of B-16 melanoma were transplanted intraperitoneally into each mouse. The treatment began one day after the transplantation and the prescribed dose of each test compound was administered intraperitoneally to the mice once a day for 8 days.
Antitumor activity of the test compound was evaluated by the rate of increase in life span (I.L.S.%) which was calculated in the same manner as used in the animal test on P388 lymphocytic leukemia.

[2] = tested on: Colon adenocarcinoma No. 38; experiment: Animal Test on Colon Adenocarcinoma No. 38 (growth inhibition); assay type: in vivo, mice [BDF1 (C57BL/6×DBA/2)]; details: 60 mg/kg daily, orally, 8 days; tumor weight on 30th day
Description: as §1, §2
Tumor cells (40 mg of fragment) of Colon adenocarcinoma No. 38 were transplanted subcutaneously in inguinal region of each mouse. The treatment began one day after the transplantation and the prescribed dose of each test compound was administered orally to the mice once a day for 8 days.
On the 30th day after the transplantation, the tumors of all the mice were excised and weighed. Antitumor activity of the test compound was evaluated by the rate of growth inhibition (G.I.%) which was calculated in the same manner as used in the animal test on Lewis lung carcinoma.

Acute Toxicity Test = details: mouse, in vivo
Description: The test group to which the compound of the present invention was administered consisted of ten mice. Five weeks old male mice (ddY, 23±2 g of body weight) were employed as test animals.

[3] = protic polar solvents such as water, lower alcohol; background statement on known compound; cited from earlier work

Row | SMILES | ILS at 20 mg/kg [1] [%] | ILS at 200 mg/kg [1] [%] | ILS at 20 mg/kg (B-16 melanoma) [%] | other results
1 | CC(=O)OCN1C(=O)CN(CCN2CC(=O)N(COC(C)=O)C(=O)C2)CC1=O [1,2-Bis(4-acetoxymethyl-3,5-dioxopiperazin-1-yl)ethane] | 63 | 45 | 39 | ILS at 60 mg/kg [1]: 118%; G.I. (Lewis lung carcinoma; 60 mg/kg daily): 79.6%; G.I. [2]: 68.0%; LD50 (Acute Toxicity Test; ip, 14 days observation): > 1000 mg/kg; LD50 (Acute Toxicity Test; po): > 2000 mg/kg
2 | O=C(COc1ccc(Cl)cc1Cl)OCN1C(=O)CN(CCN2CC(=O)N(COC(=O)COc3ccc(Cl)cc3Cl)C(=O)C2)CC1=O [1.2-Bis[4-(2,4-dichlorophenoxyacetoxymethyl)-3,5-dioxopiperazin-1-yl]ethane] | 49 | 72 | 35 | ILS at 60 mg/kg [1]: 105%
3 | O=C(OCN1C(=O)CN(CCN2CC(=O)N(COC(=O)c3ccco3)C(=O)C2)CC1=O)c1ccco1 [1,2-bis[4-(2-furoyloxymethyl)-3,5-dioxopiperazin-1-yl]ethane] |  | > 200 | 88 | 
4 | CCOC(=O)OCN1C(=O)CN(CCN2CC(=O)N(COC(=O)OCC)C(=O)C2)CC1=O [1,2-bis(4-ethoxycarbonyloxymethyl-3,5-dioxopiperazin-1-yl)ethane] | 48 | 45 |  | 
5 | O=C(COc1cc(Cl)c(Cl)cc1Cl)OCN1C(=O)CN(CCN2CC(=O)N(COC(=O)COc3cc(Cl)c(Cl)cc3Cl)C(=O)C2)CC1=O [1,2-bis[4-(2,4,5-trichlorophenoxyacetoxymethyl)-3,5-dioxopiperazin-1-yl]ethane] | 65 | 94 |  | 
6 | CC(C)(Oc1ccc(Cl)cc1)C(=O)OCN1C(=O)CN(CCN2CC(=O)N(COC(=O)C(C)(C)Oc3ccc(Cl)cc3)C(=O)C2)CC1=O [1,2-bis[4-(2-p-chlorophenoxy-2-methylpropionyloxymethyl)-3,5-dioxopiperazin-1-yl]ethane] | 63 | 114 |  | ILS at 30 mg/kg (B-16 melanoma): 86%
7 | O=C(CCl)OCN1C(=O)CN(CCN2CC(=O)N(COC(=O)CCl)C(=O)C2)CC1=O [1,2-Bis(4-chloroacetoxymethyl-3,5-dioxopiperazin-1-yl)ethane] | 54 | 38 | 38 | G.I. (Lewis lung carcinoma; 50 mg/kg daily): 66.8%
8 | O=C(Cc1ccccc1Cl)OCN1C(=O)CN(CCN2CC(=O)N(COC(=O)Cc3ccccc3Cl)C(=O)C2)CC1=O [1,2-Bis(4-o-chlorophenylacetoxymethyl-3,5-dioxopiperazin-1-yl)ethane] | 65 | 83 |  | 
9 | O=C(OCN1C(=O)CN(CCN2CC(=O)N(COC(=O)c3ccccc3Cl)C(=O)C2)CC1=O)c1ccccc1Cl [1,2-Bis(4-o-chlorobenzoyloxymethyl-3,5-dioxopiperazin-1-yl)ethane] | 55 | 90 | 65 | G.I. (Lewis lung carcinoma; 40 mg/kg daily): 43.7%
10 | O=C(CSc1ccc(F)cc1)OCN1C(=O)CN(CCN2CC(=O)N(COC(=O)CSc3ccc(F)cc3)C(=O)C2)CC1=O [1,2-bis(4-p-fluorophenylthioacetoxymethyl-3,5-dioxopiperazin-1-yl)ethane] |  | 120 |  | ILS at 40 mg/kg (B-16 melanoma; 40 mg/kg daily): 83%
11 | COC(=O)OCN1C(=O)CN(CCN2CC(=O)N(COC(=O)OC)C(=O)C2)CC1=O [1,2-Bis(4-methoxycarbonyloxymethyl-3,5-dioxopiperazin-1-yl)ethane] | 75 | 103 |  | G.I. (Lewis lung carcinoma; 60 mg/kg daily): 57.7%; ILS at 30 mg/kg (B-16 melanoma): 78%; LD50 (Acute Toxicity Test; ip, 14 days observation): ~500 mg/kg; LD50 (Acute Toxicity Test; po): > 2000 mg/kg
12 | CC(C)COC(=O)OCN1C(=O)CN(CCN2CC(=O)N(COC(=O)OCC(C)C)C(=O)C2)CC1=O [1,2-bis(4-isobutoxycarbonyloxymethyl-3,5-dioxopiperazin-1-yl)ethane] | 78 | 138 | 86 | ILS at 60 mg/kg [1]: 175%; G.I. (Lewis lung carcinoma; 50 mg/kg daily): 54.4%; G.I. [2]: 68.8%; LD50 (Acute Toxicity Test; ip, 14 days observation): > 850 mg/kg; LD50 (Acute Toxicity Test; po): > 1000 mg/kg
13 | COc1ccc(C=CC(=O)OCN2C(=O)CN(CCN3CC(=O)N(COC(=O)C=Cc4ccc(OC)cc4)C(=O)C3)CC2=O)cc1 [1,2-bis(4-p-methoxycinnamoyloxymethyl-3,5-dioxopiperazin-1-yl)ethane] | 78 | 36 |  | 
14 | CC(=O)Oc1ccc(C=CC(=O)OCN2C(=O)CN(CCN3CC(=O)N(COC(=O)C=Cc4ccc(OC(C)=O)c(OC(C)=O)c4)C(=O)C3)CC2=O)cc1OC(C)=O [1,2-bis[4-(3,4-diacetoxycinnamoyloxymethyl)-3,5-dioxopiperazin-1-yl]ethane] | 35 | 51 |  | 
15 | O=C(COc1ccc(Cl)cc1)OCN1C(=O)CN(CCN2CC(=O)N(COC(=O)COc3ccc(Cl)cc3)C(=O)C2)CC1=O [1,2-bis(4-p-chlorophenoxyacetoxymethyl-3,5-dioxopiperazin-1-yl)ethane] | 40 | 94 |  | 
16 | O=C(OCN1C(=O)CN(CCN2CC(=O)N(COC(=O)c3cccs3)C(=O)C2)CC1=O)c1cccs1 [1,2-Bis[4-(2-thenoyloxymethyl)-3,5-dioxopiperazin-1-yl]ethane] |  | 118 |  | 
17 | COc1ccccc1C(=O)OCN1C(=O)CN(CCN2CC(=O)N(COC(=O)c3ccccc3OC)C(=O)C2)CC1=O [1,2-Bis(4-o-methoxybenzoyloxymethyl-3,5-dioxopiperazin-1-yl)ethane] | 113 | 99 |  | 
18 | O=C(CSc1ccc(Br)cc1)OCN1C(=O)CN(CCN2CC(=O)N(COC(=O)CSc3ccc(Br)cc3)C(=O)C2)CC1=O [1,2-bis(4-p-bromophenylthioacetoxymethyl-3,5-dioxopiperazin-1-yl)ethane] |  | 108 |  | 
19 | O=C1CN(CCN2CC(=O)N(CN3CCOCC3)C(=O)C2)CC(=O)N1CN1CCOCC1 [1,2-bis(4-morpholinomethyl-3,5-dioxopiperazin-1-yl)ethane, reference compound] | 90 |  | 40 | ILS at 100 mg/kg ([1]; 100 mg/kg × 2 (1st and 5th day)): 60%; G.I. (Lewis lung carcinoma; 60 mg/kg daily): 22.6%; G.I. [2]: 72.8%; LD50 (Acute Toxicity Test; ip, 14 days observation): 280 mg/kg; LD50 (Acute Toxicity Test; po): > 1000 mg/kg; stability in protic polar solvents [3]: extremely unstable in the protic polar solvents such as water, lower alcohol and so on
20 | O=C(OCN1C(=O)CN(CCN2CC(=O)N(COC(=O)c3ccccc3F)C(=O)C2)CC1=O)c1ccccc1F [1,2-bis(4-o-fluorobenzoyloxymethyl-3,5-dioxopiperazin-1-yl)ethane] |  | 113 |  | 
21 | O=C(Cc1ccccc1)OCN1C(=O)CN(CCN2CC(=O)N(COC(=O)Cc3ccccc3)C(=O)C2)CC1=O [1,2-bis(4-phenylacetoxymethyl-3,5-dioxopiperazin-1-yl)ethane] | 143 | 204 | 83 | 
22 | CC(C)(C)C(=O)OCN1C(=O)CN(CCN2CC(=O)N(COC(=O)C(C)(C)C)C(=O)C2)CC1=O [1,2-Bis(4-pivaloyloxymethyl-3,5-dioxopiperazin-1-yl)ethane] | 53 | 66 |  | 
23 | O=C(OCN1C(=O)CN(CCN2CC(=O)N(COC(=O)c3ccccc3)C(=O)C2)CC1=O)c1ccccc1 [1,2-bis(4-benzoyloxymethyl-3,5-dioxopiperazin-1-yl)ethane] | 68 | 107 | 87 | 
